The values below come from patent US12121522B2, “Methods of treating cancer with an mTOR inhibitor” (Revolution Medicines, Inc., priority 2022, dated 2024).

Bounds are passed on as bounds.

In the experiment the test system is mTORC2 activity (phosphorylation of Akt at Ser473). Kind of experiment: Cellular selectivity mTORC1 over mTORC2 (p4EBP1 vs pAkt). It is filed as cell-based, human. From the text:
The in vitro profile of RMC-5552 was characterized using standard biochemical and cellular assays to determine the mode of interaction with mTORC1 and mTORC2. The effect of RMC-5552 on established cellular readouts for mTORC1 activity (including phosphorylation of P70S6K at Thr389 and 4EBP1 at Thr37/46), mTORC2 activity (including phosphorylation of Akt at Ser473), and cellular proliferation was monitored.
RMC-5552 binds to the intracellular protein FKBP12 and engages the FRB allosteric site and the ATP binding site on the mTORC1 complex, leading to inhibition of mTOR kinase activity.

In the case of `CO[C@H]1C[C@@H]2CC[C@@H](C)[C@@](O)(O2)C(=O)C(=O)N2CCCC[C@H]2C(=O)O[C@H]([C@H](C)C[C@@H]2CC[C@@H](OC(=O)NCCOCCOCCOCCOCCOCCOCCOCCOCCC(=O)NCCS(=O)(=O)c3ccc(C(=O)N4CCOc5ccc(-c6ccc(N)nc6)cc5C4)c(C)c3F)[C@H](OC)C2)C[C@@H](O)[C@H](C)/C=C(\C)[C@@H](O)[C@@H](OC)C(=O)[C@H](C)C[C@H](C)/C=C/C=C/C=C/1C` [RMC-6272], the “selective inhibition of mTORC1 over mTORC2” value is more than 10 fold.
